{
  "source": "patent US20260335294A1",
  "about": "“TREATING CONGENITAL DISORDERS OF GLYCOSYLATION” (Mayo Foundation for Medical Education and Research, priority 2022, published 2026)",
  "tested_on": "PMM2-CDG patients",
  "test": "Anti-thrombin III (ATIII) in patients on epalrestat",
  "type": "in vivo, human",
  "conditions": "for AT III: C: 0.80-1.30",
  "excerpt": "The primary objective of the study was to assess the efficacy and safety of epalrestat treatment in 3 PMM2-CDG pediatric subjects prior to a planned Phase III clinical trial (Oral epalrestat therapy in Pediatric Subjects with PMM2-CDG, NCT04925960). The secondary objective was to assess the ability of epalrestat to improve clinically relevant aspects of PMM2-CDG such as increased urine polyols (sorbitol, mannitol), abnormal glycosylation (carbohydrate deficient transferrin), abnormal coagulation (ATIII=antithrombin III), impaired liver function (ALT=Alanine Transaminase, AST=Aspartate Transaminase), neurologic function (Brief Ataxia Rating Scale=BARS), severity of phenotype (Nijmegen Pediatric CDG Rating Scale=NPCRS). The ability of epalrestat to inhibit polyol production was monitored by evaluating urine polyol levels (sorbitol, mannitol), which are elevated in PMM2-CDG. Next, carbohydrate deficient transferrin, which is abnormal in PMM2-CDG, was evaluated in order to assess improvement of glycosylation following epalrestat treatment. CDT mono-oligo/dioligo ratio and a-oligo/dioligo ratio are used to evaluate glycosylation abnormalities. Transferrin normally occurs with two glycan chains (di-oligo). In the case of glycosylation abnormalities, glycan chains are missing (A-oligo transferrin has no glycan chains, mono-oligo has one glycan chain, di-oligo has two glycan chains). The higher ratio of a-oligo/di-oligo and mono-oligo/di-oligo indicate glycosylation abnormalities are present. Therefore, improvement in a-oligo/di-oligo and mono-oligo/di-oligo ratios can be used to monitor improvement or worsening of glycosylation status. Changes in the liver enzymes AST, ALT, which are frequently elevated in PMM2-CDG, were monitored both as part of a safety study and as part of monitoring clinical improvement in coagulation. Neurologic improvement was assessed by modified BARS scores in 2 patients (3rd patient was not eligible for the test due to age at the start of the trial). NPCRS was assessed at every visit to assess changes in the severity of the patients' phenotype. Additionally, the frequency of adverse events, changes in vital signs, complete blood count, and changes in BMI were monitored.\nTwo patients were started on epalrestat on single patient investigational new drug (IND) (P5 IRB: 19-010017; IND #145262; P6 Protocol PMM2-CDG-001/A). Epalrestat was initiated on the parents' own initiative in the third patient (P7). Two patients were in their second year of epalrestat treatment, while the third, was in the 3rd year of treatment. Physical, neurological, and biochemical examinations were performed in 3 PMM2-CDG patients at baseline, and at every three months after the start of the epalrestat treatment. Patients underwent NPCRS phenotype severity assessment and biological sampling at every visit. Epalrestat (Ono Pharmaceuticals, Osaka, Japan) was taken orally 3 times per day (TID) before meals in a divided dose, with dosage escalation throughout the treatment. The pharmacological profile of epalrestat was as described elsewhere (Ligezka et al, Ann. Neurol., 90(6):887-900 (2021)). The starting dosage in P5 and P6 was 0.8 mg/kg/day, while P7 was started on 0.5 mg/kg/day due to their young age. P7 dosage was increased to 0.8 mg/day after a month, once safety was established. Blood and urine samples were collected routinely. […]",
  "data": [
    {"smiles": "CC(/C=C1\\SC(=S)N(CC(=O)O)C1=O)=C\\c1ccccc1", "note": "[epalrestat]", "values": [
      {"measurement": "AT III", "setting": "P5, 12 months, 1.5 mg/kg day, baseline 0.88", "result": 0.99, "unit": "IU/mL"},
      {"measurement": "AT III", "setting": "P5, 24 months, 2 mg/kg day, baseline 0.88", "result": 0.97, "unit": "IU/mL"},
      {"measurement": "coagulation parameters (ATIII)", "setting": "P5-P7, words", "result": "improvement"},
      {"measurement": "AT III", "setting": "P6, 18 months, 3 mg/kg day, baseline 0.25", "result": 0.39, "unit": "IU/mL"},
      {"measurement": "AT III", "setting": "P7, 12 months, 1.5 mg/kg day, baseline 0.21", "result": 0.37, "unit": "IU/mL"}
    ]}
  ]
}
